The source of these data is BindingDB's records for doi:10.1016/j.bmcl.2004.04.020 (Texas Tech University Health Sciences Center, 2004).

pKi: −log10 of the molar value. A value given as a limit tells only on which side of the number the result lay.

A short description of the first assay: Inhibition of [3H]choline brain uptake through choline transporter was determined in situ brain perfusion studies in Male Fischer-344 rats.
As to `C[N+](C)(CCO)c1ccc(F)cc1` [(4-Fluoro-phenyl)-(2-hydroxy-ethyl)-dimethyl-ammonium], the negative logarithm of the Ki (pKi) was 3.13.
Same read-out and setting: the same measure for `CC[N+](C)(C)CCO` [Ethyl-(2-hydroxy-ethyl)-dimethyl-ammonium]: 4.03.
Molecule `CC[N+](C)(C)C` [Ethyl-trimethyl-ammonium] had a pKi of 2.33. This pKi lies 1.70 log units lower than the previous one.
Still for that read-out and setting: under `CSCCO` [2-Methylsulfanyl-ethanol] stands below 2.00; under `CCCCCCCCN1CCCCC1` [1-Octyl-piperidine], 4.49.
As to `C[N+](C)(C)CCCCO`, the pKi is below 2.00.
Still for that read-out and setting: the same measure for `CCCC[N+](C)(C)CCO` [Butyl-(2-hydroxy-ethyl)-dimethyl-ammonium]: 4.40; for `CC[N+](CC)(CC)CCO`: 2.72; for `CC(=O)C1=CCC(CCc2ccccc2)CC1` (configuration not stated) [1-(4-Phenethyl-cyclohex-1-enyl)-ethanone]: 3.31.
Still for that read-out and setting: under `C[N+](C)(CCO)c1ccccc1` [(2-Hydroxy-ethyl)-dimethyl-phenyl-ammonium] stands below 2.00.
On the same count and under the same terms, the same measure for `CN(C)C1CCCCC1O` (configuration not stated) [2-Dimethylamino-cyclohexanol]: below 2.00; for `CCC[N+](C)(C)CCO` [(2-Hydroxy-ethyl)-dimethyl-propyl-ammonium]: 3.72.
As to `OCCCN1CCN(Cc2cccnc2)CC1` [3-(4-Pyridin-3-ylmethyl-piperazin-1-yl)-propan-1-ol], the pKi was below 2.00.
The same measure, in the same setting: under `CCN1CC=C(C(C)=O)CC1` [1-(1-Ethyl-1,2,3,6-tetrahydro-pyridin-4-yl)-ethanone] stands below 2.00; under `CC(O)C[N+](C)(C)C` (stereo not drawn) [beta-methylcholine], 3.70; under `C[N+](C)(C)CCCO`, 3.79.

Test in the next assay: as above
The source holds these as a separate data set.
Molecule `CCCCCCCC[N+](C)(C)CCO` [(2-Hydroxy-ethyl)-dimethyl-octyl-ammonium] had a pKi of 5.68.

Usually pKi stands for the Ki on a negative log10 scale, so that one unit is a factor of ten.
